{
  "source": "patent US9475779B2",
  "about": "“Substituted bicyclic dihydropyrimidinones and their use as inhibitors of neutrophil elastase activity” (priority 2014, dated 2016)",
  "key": {"[1]": {"molecular_target": "cytochrome P450 2C9 (Homo sapiens (Human), UniProt P11712)", "sequence (P11712 whole entry, looked up)": "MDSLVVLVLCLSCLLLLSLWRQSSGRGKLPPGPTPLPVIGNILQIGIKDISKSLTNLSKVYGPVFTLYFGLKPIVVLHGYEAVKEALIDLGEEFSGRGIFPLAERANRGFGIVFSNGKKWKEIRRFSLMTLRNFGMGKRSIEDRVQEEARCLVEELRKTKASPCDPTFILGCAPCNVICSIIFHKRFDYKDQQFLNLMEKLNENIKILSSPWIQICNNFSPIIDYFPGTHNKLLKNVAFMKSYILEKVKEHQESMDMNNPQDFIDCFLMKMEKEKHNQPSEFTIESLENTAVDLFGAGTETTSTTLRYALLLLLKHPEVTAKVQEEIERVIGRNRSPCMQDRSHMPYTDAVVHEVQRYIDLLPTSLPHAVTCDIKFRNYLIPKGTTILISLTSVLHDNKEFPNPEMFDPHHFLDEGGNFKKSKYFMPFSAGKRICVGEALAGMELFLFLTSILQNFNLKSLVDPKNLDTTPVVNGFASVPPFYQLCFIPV", "test": "biochemical"}, "[2]": {"molecular_target": "hERG potassium channel (Homo sapiens (Human), UniProt Q12809)", "test": "in vitro"}, "[3]": {"tested_on": "Caco-2 cells", "test": "in vitro", "type": "in vitro ADME", "conditions": "pH 7.2"}, "[4]": {"molecular_target": "cytochrome P450 2C8 (Homo sapiens (Human), UniProt P10632)", "sequence (P10632 whole entry, looked up)": "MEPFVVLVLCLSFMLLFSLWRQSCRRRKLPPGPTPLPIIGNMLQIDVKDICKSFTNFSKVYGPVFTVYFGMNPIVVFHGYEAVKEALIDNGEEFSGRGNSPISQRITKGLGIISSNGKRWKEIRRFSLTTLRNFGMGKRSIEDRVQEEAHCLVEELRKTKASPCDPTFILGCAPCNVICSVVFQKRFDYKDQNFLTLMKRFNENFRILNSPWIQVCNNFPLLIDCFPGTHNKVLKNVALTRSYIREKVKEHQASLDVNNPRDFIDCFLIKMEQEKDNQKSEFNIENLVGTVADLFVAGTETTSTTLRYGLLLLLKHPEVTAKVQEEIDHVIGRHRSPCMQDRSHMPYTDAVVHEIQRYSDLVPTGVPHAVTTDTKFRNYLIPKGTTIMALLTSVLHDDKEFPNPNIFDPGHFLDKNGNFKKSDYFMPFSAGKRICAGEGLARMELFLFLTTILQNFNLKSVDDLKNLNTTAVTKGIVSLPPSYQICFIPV", "test": "biochemical"}, "[5]": {"test": "physchem", "type": "physicochemical", "conditions": "McIlvaine buffer pH 6.8 containing 2.5% DMSO, pH 6.8, aqueous buffer, kinetic from dmso stock, McIlvaine buffer pH 6.8, 2.5% DMSO, 24 h"}, "[6]": {"molecular_target": "cytochrome P450 2C19 (Homo sapiens (Human), UniProt P33261)", "sequence (P33261 whole entry, looked up)": "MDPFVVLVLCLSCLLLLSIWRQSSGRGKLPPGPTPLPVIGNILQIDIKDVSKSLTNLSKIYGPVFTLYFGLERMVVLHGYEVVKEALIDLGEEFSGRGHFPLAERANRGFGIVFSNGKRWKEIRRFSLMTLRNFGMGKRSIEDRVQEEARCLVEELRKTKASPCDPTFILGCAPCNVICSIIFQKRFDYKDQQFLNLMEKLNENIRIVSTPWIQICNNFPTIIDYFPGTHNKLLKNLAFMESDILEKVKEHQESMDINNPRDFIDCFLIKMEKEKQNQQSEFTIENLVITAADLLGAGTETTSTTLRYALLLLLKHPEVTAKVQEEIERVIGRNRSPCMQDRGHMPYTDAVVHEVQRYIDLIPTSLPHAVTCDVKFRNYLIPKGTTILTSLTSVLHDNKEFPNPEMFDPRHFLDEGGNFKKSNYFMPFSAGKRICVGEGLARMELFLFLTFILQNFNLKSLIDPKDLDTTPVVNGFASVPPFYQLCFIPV", "test": "biochemical"}, "[7]": {"molecular_target": "T1, neutrophil elastase (Homo sapiens (Human), UniProt P08246)", "T1 sequence (P08246 whole entry, looked up)": "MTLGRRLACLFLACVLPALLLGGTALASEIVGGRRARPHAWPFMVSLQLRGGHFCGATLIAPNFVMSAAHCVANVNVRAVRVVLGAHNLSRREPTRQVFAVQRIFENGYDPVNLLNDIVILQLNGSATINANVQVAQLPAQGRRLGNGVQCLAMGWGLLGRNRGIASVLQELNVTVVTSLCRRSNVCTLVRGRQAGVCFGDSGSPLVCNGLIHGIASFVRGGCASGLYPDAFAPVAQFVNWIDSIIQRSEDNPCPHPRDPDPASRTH", "test": "biochemical", "type": "biochemical", "conditions": "read-out: IC50", "description": "Human Neutrophil Elastase Assay\nAll other materials were of the highest grade commercially available.\nThe following buffers were used: Compound buffer: 100 mM Tris, 500 mM NaCl, adjusted to pH 7.5; Assay buffer: 100 mM Tris, 500 mM NaCl, adjusted to pH 7.5, containing 0.01% BSA.\nAssay conditions: Test compounds were prediluted in DMSO and subsequently in compound buffer (5% DMSO final). […] After inactivation of the enzyme, fluorescence intensities were measured at 380 nm excitation and 460 nm emission wavelengths.\nEach plate contains wells with a high value control (DMSO+enzyme+substrate) and wells with a low value control (DMSO+inactivated enzyme+substrate). IC50 values were estimated using a sigmoidal concentration response curve with variable slope. Means of low values were taken as 0%, means of high values as 100%."}, "[8]": {"test": "Metabolic stability with human liver microsomes", "type": "in vitro ADME", "conditions": "human, pooled human liver microsomes, pH 7.6, pooled human liver microsomes, 1 μM test compound, 37° C.; read-out: t1/2 INVITRO"}, "[9]": {"tested_on": "human hepatocytes", "test": "Metabolic stability with human hepatocytes", "type": "in vitro ADME", "conditions": "well stirred model", "experimental": "Assay for the Determination of Metabolic Stability with Human Hepatocytes\nThe metabolic degradation of the test compound is assayed in a human hepatocyte suspension. Human hepatocytes (typically cryopreserved) are incubated in an appropriate buffer system (e.g. Dulbecco's modified eagle medium plus […]/500 mL, 2.5 mg insulin/500 mL and 3.75 mg/500 mL hydrocortison) containing 5% species serum. Following a (typically) 30 min preincubation in an incubator (37° C., 10% CO2), 5 μl of test compound solution (80 μM; from 2 mM stock solution in DMSO diluted 1:25 with medium) are added into 395 μl hepatocyte suspension (cell density in the range 0.25-5*10^6 cells/mL, typically 1*10^6 cells/mL; final concentration of test compound 1 μM, final DMSO concentration 0.05%). The cells are incubated for six hours (incubator, orbital shaker) and samples (25 μl) are taken at 0, 0.5, 1, 2, 4 and 6 hours. Samples are transferred into acetonitrile and pelleted by centrifugation (5 min). […] The decline of parent compound is analyzed by LC-MS/MS.\nThe intrinsic clearance CL_[…] is calculated as follows: CL_[…]=Dose/AUC=(C0/CD)/(AUD+clast/k)*1′000/60 (C0: initial concentration in the incubation […], CD: cell density of vital cells [10^6 cells/mL], AUD: area under the data [μM*h], clast: concentration of last data point [μM], k: slope of the regression line for parent decline [h^−1]) […]"}, "[10]": {"molecular_target": "T1, neutrophil elastase", "test": "biochemical"}},
  "data": [
    {"smiles": "CN1C(=O)N(c2cccc(C(F)(F)F)c2)C2=C(C(=O)CC2)[C@H]1c1ccc(C#N)cc1[S+](C)[O-]", "note": "(single isomer, unassigned) [Example C.2A, 3-Methanesulfinyl-4-[3-methyl-2,5-dioxo-1-(3-trifluoromethyl-phenyl)-2,3,4,5,6,7-hexahydro-1H-cyclopentapyrimidin-4-yl]-benzonitrile]", "values": [
      {"measurement": "IC50", "setting": "[1]", "result": "> 50", "unit": "µM"},
      {"measurement": "inhibition at 10 µM", "setting": "[2]", "result": 7, "unit": "%"},
      {"measurement": "PEAB", "setting": "[3]", "result": 13, "unit": "×10⁻⁶ cm/s"},
      {"measurement": "PEBA", "setting": "[3]", "result": 73, "unit": "×10⁻⁶ cm/s"},
      {"measurement": "IC50", "setting": "[4]", "result": "> 50", "unit": "µM"},
      {"measurement": "solubility at 24 h", "setting": "[5]", "result": 58, "unit": "µg/mL"},
      {"measurement": "IC50", "setting": "[6]", "result": "> 50", "unit": "µM"},
      {"measurement": "IC50", "setting": "[7]", "result": "< 0.001", "unit": "µM"},
      {"measurement": "half-life at 1 μM", "setting": "[8]", "result": "> 2.17", "unit": "h"},
      {"measurement": "predicted hepatic in vivo blood clearance", "setting": "[9]", "result": "3 % human hepatic blood flow"},
      {"measurement": "EC50", "setting": "[10]", "result": 0.002, "unit": "µM"}
    ]}
  ]
}
